Results on 17 molecules are retold here after patent publication US7390910B2, “Compounds for treating tumors” (priority 2003, dated 2008).

Assay [1] concerns bovine microtubule-associated protein (MAP)-rich tubulin. Format: biochemical. The method, then:
Tubulin Polymerization Assays. For in vitro tubulin polymerization assays, bovine microtubule-associated protein (MAP)-rich tubulin, PEM buffer [80 mM Na-PIPES (pH 6.9), 1 mM MgCl2, and 1 mM EGTA], and GTP are purchased from Cytoskeleton (Denver, Colo.). MAP-rich tubulin (final concentration 1.5 mg/ml) is dissolved in cold PEM buffer containing 1 mM GTP (GPEM) and centrifuged at 12,000×g for 10 min at 4° C. The tubulin solution (100 μl/well) is added rapidly to wells of a low-volume, 96-well plate already containing duplicate aliquots (10 μl) of test compounds in GPEM. […] Control wells contained the same final concentration of DMSO (0.3%). After initiation of the reaction, absorbance at 340 nm is measured every minute for 60 min at 24° C. using a SpectraMax Plus plate reader (Molecular Devices, Sunnyvale, Calif.).

In assay [2] the test system is KB cells. In words: cells. As to conditions: for IC50: 3 days, SRB; for inhibition at 3 µM: 3000 nM. Format: cell-based. The method, then: (§1) Cell Survival Assay: Standard Pharmacological Test Procedure. […] Compounds are incubated with cells for 3 days.
In assay [3] the test system is KB85. Briefly: cells. In kind it is cell-based. As to conditions: for IC50: 3 days, SRB. The method, then:
as §1

For assay [4], the system named is KBV1. Briefly: cells. In kind it is cell-based. As to conditions: for inhibition at 3 µM: KB-V1, 3000 nM; for IC50: 3 days, SRB. The method, then: as §1

Marks after values point to notes of the source that are not given here. Where a SMILES comes first, the peptide text is derived from it. [ ]: non-standard residue; d: D form. NMePhe(β,β-Me2) = CN[C@H](C(=O)O)C(C)(C)c1ccccc1; Tle = CC(C)(C)[C@H](N)C(=O)O; NMeV = CN[C@H](C(=O)O)C(C)C

Consider `CN[C@@H](C(=O)N[C@H](C(=O)N(C)[C@H](/C=C(\C)C(=O)N1CCOCC1)C(C)C)C(C)(C)C)C(C)(C)c1ccc(C)c(C)c1` [Example 4, N,β,β,3,4-Pentamethyl-D-phenylalanyl-N^1[(1S,2E)-1-isopropyl-3-methyl-4-morpholin-4-yl-4-oxobut-2-enyl]-N^1,3-dimethyl-L-valinamide], for which the “Tubulin Polym. % inhibition at 0.3 uM” value in assay [1] was 61%. Further, the IC50 came to 375 nM in assay [2] (Homo sapiens, KB, 72 h) and 536 nM in assay [3] (72 h). The molecule further registered an inhibition at 3 µM in assay [4] (Homo sapiens) of 42%.

For the molecule `CN[C@H](C(=O)N[C@H](C(=O)N(C)[C@H](/C=C/P(=O)(OC)OC)C(C)C)C(C)(C)C)C(C)(C)c1ccccc1` [Example 68, N,β,β-trimethyl-L-phenylalanyl-N^1-[(1S,2E)-3-(dimethoxyphosphoryl)-1-isopropylprop-2-enyl]-N^1,3-dimethyl-L-valinamide], in assay [1], the “Tubulin Polym. % inhibition at 0.3 uM” value turned out to be 45%. Moreover, the IC50 is 1980 nM in assay [2] (Homo sapiens, KB, 72 h) and 2080 nM in assay [3] (72 h). Further, the inhibition at 3 µM in assay [4] (Homo sapiens) is 8%.

Regarding `CCOS(=O)(=O)/C=C/[C@H](C(C)C)N(C)C(=O)[C@@H](NC(=O)[C@@H](NC)C(C)(C)c1ccccc1)C(C)(C)C` [Example 63, N,β,β-trimethyl-L-phenylalanyl-N^1-[(1S,2E)-3-(ethoxysulfonyl)-1-isopropylprop-2-enyl]-N^1,3-dimethyl-L-valinamide], in assay [1], the “Tubulin Polym. % inhibition at 0.3 uM” value is 42%. Further, the inhibition at 3 µM was determined as 1% in assay [2] (Homo sapiens, 72 h); 0% in assay [3] (3000 nM); 0% in assay [4] (Homo sapiens).

With `CN[C@H](C(=O)N[C@H](C(=O)N(C)[C@H](/C=C1/C(=O)NC(=O)N1C)C(C)C)C(C)(C)C)C(C)(C)c1ccccc1` [Example 89, N,β,β-trimethyl-L-phenylalanyl-N^1,3-dimethyl-N^1-{(1S)-2-methyl-1-[(Z)-(3-methyl-2,5-dioxoimidazolidin-4-ylidene)methyl]propyl}-L-valinamide], in assay [1], the “Tubulin Polym. % inhibition at 0.3 uM” value worked out at 95%. Also, the IC50 was determined as 5.1 nM in assay [2] (Homo sapiens, KB, 72 h); 9.9 nM in assay [3] (72 h); 230 nM in assay [4] (Homo sapiens, KB-V1, 72 h).

For the molecule `CN[C@H](C(=O)N[C@H](C(=O)N(C)[C@H](/C=C(\C)C(=O)c1ncc[nH]1)C(C)C)C(C)(C)C)C(C)(C)c1ccccc1` [Example 88, (2S)-N-[(1S,2E)-4-(1H-imidazol-2-yl)-1-isopropyl-3-methyl-4-oxobut-2-enyl]- -trimethyl-2-{[(2S)-3-methyl-2-(methylamino)-3-phenylbutanoyl]amino}butanamide], in assay [1], the “Tubulin Polym. % inhibition at 0.3 uM” value came to 91%. The IC50 is 218 nM in assay [2] and 1360 nM in assay [3]. The “KBV1 % inhibition @ 3000 nM” value in assay [4] is reported as 0%.

Consider `CN[C@@H](C(=O)N[C@H](C(=O)N(C)[C@H](/C=C(\C)C(=O)O)C(C)C)C(C)(C)C)C12CC3CC(CC(C3)C1)C2` [Example 56, (2E,4S)-4-[{N-[(2R)-2-(1-adamantyl)-2-(methylamino)ethanoyl]-3-methyl-L-valyl}(methyl)amino]-2,5-dimethyl-2-hexenoic acid], for which the IC50 in assay [2] (Homo sapiens, KB, 72 h) came to 468 nM; in assay [3] (72 h) it was 575 nM. In addition, the inhibition at 3 µM in assay [4] (Homo sapiens) came to 11%.

Take `CN[C@H](C(=O)N[C@H](C(=O)N(C)[C@H](/C=C/P(=O)(O)OC)C(C)C)C(C)(C)C)C(C)(C)c1ccccc1` [Example 69, N,β,β-trimethyl-L-phenylalanyl-N^1-{(1S,2E)-3-[hydroxy(methoxy)phosphoryl]-1-isopropylprop-2-enyl}-N^1,3-dimethyl-L-valinamide]: in assay [1], the “Tubulin Polym. % inhibition at 0.3 uM” value is reported as 59%. Further, the inhibition at 3 µM in assay [2] (Homo sapiens, 72 h) was determined as 0%; in assay [3] (3000 nM) it was 0%; in assay [4] (Homo sapiens), 3%.

In the case of `CN[C@H](C(=O)N[C@H](C(=O)N(C)[C@H](/C=C(\C)C(=O)N1CCOCC1)C(C)C)C(C)(C)C)C(C)(C)c1ccc(C)c(C)c1` [Example 2, N,β,β,3,4-Pentamethyl-L-phenylalanyl-N^1-[(1S,2E)-1-isopropyl-3-methyl-4-morpholin-4-yl-4-oxobut-2-enyl]-N^1,3-dimethyl-L-valinamide], the “Tubulin Polym. % inhibition at 0.3 uM” value in assay [1] was 37%. The IC50 in assay [2] (Homo sapiens, KB, 72 h) came out at 34 nM; in assay [3] (72 h) it was 62 nM; in assay [4] (Homo sapiens, KB-V1, 72 h), 162 nM.

Turning to `CN[C@H](C(=O)N[C@H](C(=O)N(C)[C@H](/C=C(\C)C(O)c1nccs1)C(C)C)C(C)(C)C)C(C)(C)c1ccccc1` (stereo partly drawn) [Example 77, N,β,β-trimethyl-L-phenylalanyl-N-1-[(1S,2E)-4-hydroxy-1-isopropyl-3-methyl-4-(1,3-thiazol-2-yl)but-2-enyl]-N-1-,3-dimethyl-L-valinamide], the “Tubulin Polym. % inhibition at 0.3 uM” value in assay [1] is recorded as 97%. The figures for the IC50 in assay [2], in assay [3] and in assay [4] were 13 nM, 19 nM and 364 nM, respectively.

For `CN[C@H](C(=O)N[C@H](C(=O)N(C)[C@H](/C=C(\C)C(=O)N1CCC[C@H]1C(=O)OC)C(C)C)C(C)(C)C)C(C)(C)c1cc(C)cc(C)c1` [Example 19, N,β,β,3,5-Pentamethyl-L-phenylalanyl-N^1-{(1S,2E)-4-[(2S)-2-(methoxycarbonyl)pyrrolidin-1-yl]-1-isopropyl-3-methyl-4-oxobut-2-enyl}-N^1,3-dimethyl-L-valinamide], in assay [1], the “Tubulin Polym. % inhibition at 0.3 uM” value was determined as 66%. The IC50 in assay [2] (Homo sapiens, KB, 72 h) stood at 5.9 nM; in assay [3] (72 h), 50 nM; in assay [4] (Homo sapiens, KB-V1, 72 h), 1550 nM.

With `CN[C@H](C(=O)N[C@H](C(=O)N(C)[C@H](/C=C(\C)C(=O)c1nccs1)C(C)C)C(C)(C)C)C(C)(C)c1ccccc1` [Example 73, N,β,β-trimethyl-L-phenylalanyl-N^1-[(1S,2E)-1-isopropyl-3-methyl-4-oxo-4-(1,3-thiazol-2-yl)but-2-enyl]-N^1,3-dimethyl-L-valinamide], in assay [1], the “Tubulin Polym. % inhibition at 0.3 uM” value is given as 33%. Further, the IC50 came out at 582 nM in assay [2] (Homo sapiens, KB, 72 h); 565 nM in assay [3] (72 h); 1790 nM in assay [4] (Homo sapiens, KB-V1, 72 h).

Regarding `CN[C@H](C(=O)N[C@H](C(=O)N(C)[C@H](/C=C(\C)C(=O)N1CCN(Cc2ccccc2)CC1)C(C)C)C(C)(C)C)C(C)(C)c1cc(C)cc(C)c1` [Example 14, N,β,β,3,5-Pentamethyl-L-phenylalanyl-N^1-[(1S,2E)-4-(4-benzylpiperazin-1-yl)-1-isopropyl-3-methyl-4-oxobut-2-enyl]-N^1,3-dimethyl-L-valinamide], in assay [1], the “Tubulin Polym. % inhibition at 0.3 uM” value was 51(5) %. Moreover, the IC50 in assay [2] (Homo sapiens, KB, 72 h) was found to be 45 nM; in assay [3] (72 h), 135 nM; in assay [4] (Homo sapiens, KB-V1, 72 h), 1650 nM.

As to `CN[C@H](C(=O)N[C@H](C(=O)N(C)[C@H](/C=C(\C)[C@@H](O)c1ccccc1)C(C)C)C(C)(C)C)C(C)(C)c1ccccc1` [Example 75, N,β,β-trimethyl-L-phenylalanyl-N-1-[(1S,2E,4R)-4-hydroxy-1-isopropyl-3-methyl-4-phenylbut-2-enyl}-N-1,3-dimethyl-L-valinamide], the “Tubulin Polym. % inhibition at 0.5 uM” value in assay [1] (0.5 uM) is 83*** %. The IC50 came to 124 nM in assay [2], 186 nM in assay [3] and 632 nM in assay [4].

Take `CN[C@H](C(=O)N[C@H](C(=O)N(C)[C@H](C(=O)N1CCC[C@H]1C(=O)OC)C(C)C)C(C)(C)C)C(C)(C)c1ccccc1` [Example 33, Methyl N,β,β-trimethyl-L-phenylalanyl-3-methyl-L-valyl-N-methyl-L-valyl-L-prolinate] (H-[NMePhe(β,β-Me2)][Tle][NMeV]P-OMe): the “Tubulin Polym. % inhibition at 0.3 uM” value in assay [1] stood at 19%. In addition, the IC50 in assay [2] (Homo sapiens, KB, 72 h) was 18 nM; in assay [3] (72 h), 53 nM; in assay [4] (Homo sapiens, KB-V1, 72 h), 1530 nM.

On to `C/C(=C\[C@H](C(C)C)N(C)C(=O)[C@@H](NC(=O)C1N(C)CCSC1(C)C)C(C)(C)C)C(=O)O` (stereo partly drawn) [Example 58, (2E,4S)-2,5-dimethyl-4-(methyl{3-methyl-N-[(2,2,4-trimethylthiomorpholin-3-yl)carbonyl]-L-valyl}amino)hex-2-enoic acid], for which, in assay [1], the “Tubulin Polym. % inhibition at 0.3 uM” value is listed as 89(2) %. The IC50 in assay [2] (Homo sapiens, KB, 72 h) amounted to 427 nM; in assay [3] (72 h) it was 550 nM. 3 µM produced 15% inhibition in assay [4] (Homo sapiens).

On to `CN[C@H](C(=O)N[C@H](C(=O)N(C)[C@H](/C=C(\C)C(=O)O)C(C)C)C(C)(C)C)C12CC3CC(CC(C3)C1)C2` [Example 55, (2E,4S)-4-[{N-[(2S)-2-(1-adamantyl)-2-(methylamino)ethanoyl]-3-methyl-L-valyl}(methyl)amino]-2,5-dimethyl-2-hexenoic acid], for which the “Tubulin Polym. % inhibition at 0.3 uM” value in assay [1] is recorded as 66%. For the same molecule, the IC50 in assay [2] (Homo sapiens, KB, 72 h) came out at 603 nM; in assay [3] (72 h) it was 646 nM. The molecule also showed an inhibition at 3 µM in assay [4] (Homo sapiens) of 13%.

With “Ethyl (E,4S)-4-[((2S)-2-{[(2S)-2-azido-3-methyl-3-phenylbutanoyl]amino}-3,3 -dimethylbutanoyl)(methyl)amino]-2,5-dimethyl-2-hexenoate and ethyl (E,4S)-4-[((2S)-2-{[(2R)-2-azido-3-methyl-3-phenylbutanoyl]amino}-3,3-dimethylbutanoyl)(methyl)amino]-2,5-dimethyl-2-hexenoate [Example 93]”, in assay [2], the IC50 stood at 2510 nM. In assay [3] (3000 nM), the “KB85 % inhibition @ 3000 nM” value is recorded as 30%. Besides, in assay [4], the “KBV1 % inhibition @ 3000 nM” value came out at 30%.

As a reminder, the IC50 is the concentration at which inhibition is half-maximal. A low value points to greater potency in that assay. The term inhibition denotes the percentage by which the read-out fell short of the control.
